{"source": "patent US20080103151A9", "about": "“Heterocyclic compounds and their uses as therapeutic agents” (Xenon Pharmaceuticals Inc., priority 2005, published 2008)", "key": {"[1]": {"test": "Stability of the isolated solid in the air", "type": "physicochemical", "conditions": "white solid, turned to red in the air", "experimental": "A mixture of 3-hydroxy-3-(6-hydroxy-1,3-benzodioxol-5-yl)-1-pentyl-1,3-dihydro-2H-pyrrolo[3,2-c]pyridin-2-one (0.15 g, 0.42 mmol), triethylsilane (1.60 mL, 10.0 mmol) and trifluroacetic acid (0.74 mL, 10.0 mmol) was stirred at ambient temperature overnight. The mixture was diluted with ethyl acetate (100 mL), washed with water, dried over anhydrous sodium sulfate and filtered. The filtrate was concentrated in vacuo. The residue was triturated with diethyl ether to give the title compound as a white solid (not stable, turned to red in the air): MS (ES+) m/z 341.4 (M+1)."}, "[2]": {"system": "Nav1.4 and 1.5 (L6 rat myoblast cell)", "type": "cell-based"}, "[3]": {"target": "NaV1.8 (SK-N-BE2C neuroblastoma cell line) (Homo sapiens, UniProt Q9Y5Y9)", "sequence (Q9Y5Y9 whole entry, looked up)": "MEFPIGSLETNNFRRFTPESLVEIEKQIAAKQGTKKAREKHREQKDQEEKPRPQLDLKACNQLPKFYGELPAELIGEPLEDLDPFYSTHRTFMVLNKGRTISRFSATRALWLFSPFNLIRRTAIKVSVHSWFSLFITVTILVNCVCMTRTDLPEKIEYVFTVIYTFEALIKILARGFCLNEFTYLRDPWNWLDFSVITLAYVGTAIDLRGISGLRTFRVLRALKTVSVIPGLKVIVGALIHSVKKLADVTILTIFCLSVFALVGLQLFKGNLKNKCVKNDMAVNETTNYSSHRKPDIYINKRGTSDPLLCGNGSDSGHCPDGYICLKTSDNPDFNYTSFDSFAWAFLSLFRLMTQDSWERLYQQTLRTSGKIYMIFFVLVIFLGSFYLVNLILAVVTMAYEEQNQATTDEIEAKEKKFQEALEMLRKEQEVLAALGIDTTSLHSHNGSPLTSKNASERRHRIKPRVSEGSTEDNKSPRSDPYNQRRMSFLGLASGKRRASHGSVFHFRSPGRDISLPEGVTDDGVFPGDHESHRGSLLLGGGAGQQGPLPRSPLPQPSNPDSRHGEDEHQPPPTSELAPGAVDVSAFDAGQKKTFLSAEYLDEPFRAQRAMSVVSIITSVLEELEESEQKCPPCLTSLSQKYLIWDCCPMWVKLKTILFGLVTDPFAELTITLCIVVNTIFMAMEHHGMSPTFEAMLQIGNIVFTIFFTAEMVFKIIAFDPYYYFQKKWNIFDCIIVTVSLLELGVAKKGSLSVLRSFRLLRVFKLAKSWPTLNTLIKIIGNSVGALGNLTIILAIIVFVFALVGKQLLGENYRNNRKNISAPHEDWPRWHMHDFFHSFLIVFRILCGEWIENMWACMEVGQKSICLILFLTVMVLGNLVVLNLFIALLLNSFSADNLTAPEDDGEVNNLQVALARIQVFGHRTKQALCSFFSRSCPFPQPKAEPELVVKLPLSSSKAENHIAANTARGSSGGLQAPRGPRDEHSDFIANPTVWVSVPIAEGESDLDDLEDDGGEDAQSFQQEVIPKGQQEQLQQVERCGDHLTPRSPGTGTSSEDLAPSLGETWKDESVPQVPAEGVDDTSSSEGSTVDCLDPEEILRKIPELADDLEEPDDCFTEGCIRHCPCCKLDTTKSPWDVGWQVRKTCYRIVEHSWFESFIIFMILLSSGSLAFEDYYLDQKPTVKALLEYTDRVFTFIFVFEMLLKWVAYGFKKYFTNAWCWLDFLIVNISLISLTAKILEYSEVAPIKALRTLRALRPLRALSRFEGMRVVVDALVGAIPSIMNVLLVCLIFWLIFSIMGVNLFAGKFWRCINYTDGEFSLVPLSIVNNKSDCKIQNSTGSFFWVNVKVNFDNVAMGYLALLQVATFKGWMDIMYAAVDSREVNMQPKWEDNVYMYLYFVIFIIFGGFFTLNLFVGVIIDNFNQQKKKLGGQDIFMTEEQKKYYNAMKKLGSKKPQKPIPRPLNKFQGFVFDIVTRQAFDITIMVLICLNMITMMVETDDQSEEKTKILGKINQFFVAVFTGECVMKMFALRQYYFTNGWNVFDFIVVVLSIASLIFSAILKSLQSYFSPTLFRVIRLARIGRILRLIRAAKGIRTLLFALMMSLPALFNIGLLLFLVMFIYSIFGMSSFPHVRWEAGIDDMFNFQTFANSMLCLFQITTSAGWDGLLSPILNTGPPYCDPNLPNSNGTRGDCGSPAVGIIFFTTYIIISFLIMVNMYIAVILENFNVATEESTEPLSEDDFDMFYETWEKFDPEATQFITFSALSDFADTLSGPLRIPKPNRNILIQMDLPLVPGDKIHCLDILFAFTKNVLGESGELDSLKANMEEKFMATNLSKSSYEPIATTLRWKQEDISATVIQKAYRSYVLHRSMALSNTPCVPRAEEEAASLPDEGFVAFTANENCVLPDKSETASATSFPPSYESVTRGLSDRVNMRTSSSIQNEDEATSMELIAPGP", "type": "cell-based"}, "[4]": {"target": "Nav1.2 (PC12 pheochromocytoma) (Rattus norvegicus, UniProt P04775)"}, "[5]": {"target": "Nav1.4 (CHO-K1 cells) (Cricetulus griseus, UniProt A0A9J7H6F9)", "sequence (A0A9J7H6F9 1-1930)": "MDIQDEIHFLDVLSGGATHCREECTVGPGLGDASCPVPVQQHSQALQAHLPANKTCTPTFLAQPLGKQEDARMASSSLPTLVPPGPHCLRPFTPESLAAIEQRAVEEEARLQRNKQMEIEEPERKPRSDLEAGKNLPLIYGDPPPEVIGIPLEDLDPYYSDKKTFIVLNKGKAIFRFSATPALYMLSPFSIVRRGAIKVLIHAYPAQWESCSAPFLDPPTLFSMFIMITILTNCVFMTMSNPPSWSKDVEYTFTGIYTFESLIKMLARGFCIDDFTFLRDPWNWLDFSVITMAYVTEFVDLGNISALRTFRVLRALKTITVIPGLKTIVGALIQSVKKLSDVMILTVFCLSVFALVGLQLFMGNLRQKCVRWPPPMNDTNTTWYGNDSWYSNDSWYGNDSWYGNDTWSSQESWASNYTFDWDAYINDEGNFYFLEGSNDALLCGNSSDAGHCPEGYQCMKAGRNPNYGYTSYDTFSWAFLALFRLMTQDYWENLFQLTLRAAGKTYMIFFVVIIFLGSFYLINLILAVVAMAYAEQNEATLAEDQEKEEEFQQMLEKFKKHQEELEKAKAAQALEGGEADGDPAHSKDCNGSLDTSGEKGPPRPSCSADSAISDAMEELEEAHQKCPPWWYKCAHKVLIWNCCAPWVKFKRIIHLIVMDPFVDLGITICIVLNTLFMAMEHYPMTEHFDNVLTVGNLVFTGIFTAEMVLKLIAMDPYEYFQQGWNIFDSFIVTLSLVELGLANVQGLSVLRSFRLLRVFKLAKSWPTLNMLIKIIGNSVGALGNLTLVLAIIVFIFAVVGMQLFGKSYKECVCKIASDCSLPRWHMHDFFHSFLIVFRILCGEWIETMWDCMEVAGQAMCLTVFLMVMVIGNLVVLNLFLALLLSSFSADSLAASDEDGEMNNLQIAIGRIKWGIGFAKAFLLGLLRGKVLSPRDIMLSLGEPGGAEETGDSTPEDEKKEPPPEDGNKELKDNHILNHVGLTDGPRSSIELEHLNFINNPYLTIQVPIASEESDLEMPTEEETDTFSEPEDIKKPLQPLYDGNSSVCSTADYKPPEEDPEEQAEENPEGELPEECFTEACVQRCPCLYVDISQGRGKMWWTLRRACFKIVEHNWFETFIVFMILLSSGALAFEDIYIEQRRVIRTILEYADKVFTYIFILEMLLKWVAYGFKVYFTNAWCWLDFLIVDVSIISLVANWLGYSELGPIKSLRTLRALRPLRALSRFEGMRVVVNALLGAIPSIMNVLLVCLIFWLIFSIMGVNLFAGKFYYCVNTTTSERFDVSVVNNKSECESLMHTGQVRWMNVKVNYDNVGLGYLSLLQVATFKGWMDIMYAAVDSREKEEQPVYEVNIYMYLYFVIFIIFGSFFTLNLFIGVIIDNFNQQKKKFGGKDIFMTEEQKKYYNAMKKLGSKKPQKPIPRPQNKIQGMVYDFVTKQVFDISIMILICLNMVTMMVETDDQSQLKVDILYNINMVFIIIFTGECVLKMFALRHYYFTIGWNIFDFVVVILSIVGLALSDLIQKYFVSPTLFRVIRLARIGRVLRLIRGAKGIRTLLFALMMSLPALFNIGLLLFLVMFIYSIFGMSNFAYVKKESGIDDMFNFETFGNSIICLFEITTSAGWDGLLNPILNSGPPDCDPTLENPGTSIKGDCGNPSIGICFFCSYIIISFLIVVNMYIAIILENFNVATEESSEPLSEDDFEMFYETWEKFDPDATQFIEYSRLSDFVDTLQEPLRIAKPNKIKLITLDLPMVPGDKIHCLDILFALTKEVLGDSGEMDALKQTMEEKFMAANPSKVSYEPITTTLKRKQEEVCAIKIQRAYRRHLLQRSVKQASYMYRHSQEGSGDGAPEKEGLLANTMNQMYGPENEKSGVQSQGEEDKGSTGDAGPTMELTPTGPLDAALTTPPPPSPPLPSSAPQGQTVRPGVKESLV", "type": "cell-based, Chinese Hamster"}}}
{"smiles": "CCCCCN1C(=O)C(O)(c2ccc3c(c2)OCO3)c2cccnc21", "note": "(centres unmarked)", "values": [{"measurement": "melting point", "value": "104 to 105", "unit": "°C"}]}
{"smiles": "CCCCCN1C(=O)C(O)(c2cc3c(cc2O)OCO3)c2cnccc21", "note": "(centres unmarked)", "values": [{"measurement": "melting point", "value": "193 to 195", "unit": "°C"}]}
{"smiles": "CCCCCN1C(=O)C(c2cc3c(cc2O)OCO3)c2cnccc21", "note": "(centres unmarked) [Example 10, 3-(6-hydroxy-1,3-benzodioxol-5-yl)-1-pentyl-1,3-dihydro-2H-pyrrolo[3,2-c]pyridin-2-one]", "values": [{"measurement": "stability of the solid in the air", "setting": "[1]", "value": "not stable"}]}
{"smiles": "CCCCCN1C(=O)C(c2ccc3c(c2)OCO3)c2cccnc21", "note": "(centres unmarked) [Example 17, 3-(1,3-benzodioxol-5-yl)-1-pentyl-1,3-dihydro-2H-pyrrolo[2,3-b]pyridin-2-one]", "values": [{"measurement": "melting point", "value": "75 to 77", "unit": "°C"}]}
{"smiles": "NC1=N[C@H](O)[C@H]2[C@H]3O[C@]4(O)O[C@@H]([C@@H](O)[C@@]2(N1)[C@@H]4O)[C@]3(O)CO", "note": "[TTX, tetrodotoxin]", "values": [{"measurement": "block of [^14C] Guanidine influx by TTX", "setting": "[2]", "value": "partially blocked by TTX (Nav1.5"}, {"measurement": "block of [^14C] Guanidine influx by TTX", "setting": "[3]", "value": "TTX partially blocked influx"}, {"measurement": "block of [^14C] Guanidine influx by TTX", "setting": "[4]", "value": "Guanidine influx was completely"}, {"measurement": "block of [^14C] Guanidine influx by TTX", "setting": "[5]", "value": "Guanidine influx was completely"}]}
